Results taken from ChEMBL document CHEMBL5696442, “Discovery of type II inhibitors of TGFβ-activated kinase 1 (TAK1) and mitogen-activated protein kinase kinase kinase kinase 2 (MAP4K2)” (J Med Chem, 2015).
The source made the active and inactive calls. The rule behind the calls is not given here.

How the values were obtained:
[1] = biological target: T1, Serine/threonine-protein kinase TBK1 (Homo sapiens) (UniProt Q9UHD2); assay: Inhibition of TBK1 Lys1 labeling site in human Huh-7 cell lysate at 1 uM by KiNativ Profiling analysis relative to control; format: subcellular
T1 sequence (whole entry): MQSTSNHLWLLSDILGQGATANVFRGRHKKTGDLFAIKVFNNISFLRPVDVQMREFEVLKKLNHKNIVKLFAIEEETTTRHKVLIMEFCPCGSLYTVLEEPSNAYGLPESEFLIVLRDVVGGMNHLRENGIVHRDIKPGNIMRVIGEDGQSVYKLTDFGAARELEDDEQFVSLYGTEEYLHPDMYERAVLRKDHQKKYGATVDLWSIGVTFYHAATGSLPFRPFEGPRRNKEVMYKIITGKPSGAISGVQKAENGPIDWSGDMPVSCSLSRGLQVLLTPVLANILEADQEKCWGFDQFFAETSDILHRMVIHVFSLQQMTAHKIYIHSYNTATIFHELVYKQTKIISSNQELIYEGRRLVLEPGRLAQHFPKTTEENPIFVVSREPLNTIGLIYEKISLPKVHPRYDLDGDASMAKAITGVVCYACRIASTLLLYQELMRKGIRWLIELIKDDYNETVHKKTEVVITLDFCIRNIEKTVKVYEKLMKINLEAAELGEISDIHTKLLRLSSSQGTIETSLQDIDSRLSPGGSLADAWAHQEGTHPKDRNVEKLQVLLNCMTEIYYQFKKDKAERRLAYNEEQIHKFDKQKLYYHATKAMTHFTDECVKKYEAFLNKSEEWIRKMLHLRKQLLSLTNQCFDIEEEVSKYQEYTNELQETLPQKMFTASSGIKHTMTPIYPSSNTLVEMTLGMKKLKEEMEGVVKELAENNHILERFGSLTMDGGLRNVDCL

[2] = biological target: Mitogen-activated protein kinase 8 (Homo sapiens, UniProt P45983); assay: Inhibition of JNK1 Lys2 labeling site in human Huh-7 cells at 1 uM by KiNativ Profiling analysis relative to control; format: cell-based
[3] = biological target: Mitogen-activated protein kinase kinase kinase 11 (Homo sapiens) (UniProt Q16584); assay: Inhibition of MLK3 Lys2 labeling site in human Huh-7 cells at 1 uM by KiNativ Profiling analysis relative to control; format: cell-based
[4] = biological target: STE20/SPS1-related proline-alanine-rich protein kinase (Homo sapiens) (UniProt Q9UEW8); assay: Inhibition of STK39 (unknown origin) at 1 uM by Ambit Kinomescan binding assay relative to control
[5] = biological target: T2, Acylglycerol kinase, mitochondrial (Homo sapiens) (UniProt Q53H12); assay: Inhibition of AGK ATP labeling site in human A-375 cells at 5 uM by KiNativ Profiling analysis relative to control; format: cell-based
T2 sequence (whole entry): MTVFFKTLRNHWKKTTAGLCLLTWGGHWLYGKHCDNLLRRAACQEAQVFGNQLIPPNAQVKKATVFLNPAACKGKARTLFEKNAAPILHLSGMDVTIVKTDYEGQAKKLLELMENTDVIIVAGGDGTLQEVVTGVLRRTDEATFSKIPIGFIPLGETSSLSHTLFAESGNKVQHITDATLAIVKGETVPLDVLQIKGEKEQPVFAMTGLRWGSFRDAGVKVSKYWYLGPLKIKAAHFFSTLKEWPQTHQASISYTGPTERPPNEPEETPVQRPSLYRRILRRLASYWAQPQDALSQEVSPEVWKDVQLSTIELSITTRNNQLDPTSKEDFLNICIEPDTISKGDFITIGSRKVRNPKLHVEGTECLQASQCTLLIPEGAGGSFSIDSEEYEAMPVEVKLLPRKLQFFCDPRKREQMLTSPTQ

[6] = biological target: RAC-alpha serine/threonine-protein kinase (Homo sapiens) (UniProt P31749); assay: Inhibition of AKT1 ATP Loop labeling site in human A-375 cells at 5 uM by KiNativ Profiling analysis relative to control; format: cell-based
[7] = biological target: Serine/threonine-protein kinase 38-like (Homo sapiens) (UniProt Q9Y2H1); assay: Inhibition of NDR2 Lys1 labeling site harbouring KDTGHIYAMKILR in human A-375 cells at 5 uM by KiNativ Profiling analysis relative to control; format: cell-based
[8] = system: Mast/stem cell growth factor receptor Kit (Homo sapiens), P10721 [V559D,V654A]; assay: Inhibition of KIT V559D/V654A mutant (unknown origin) at 1 uM by Ambit Kinomescan binding assay relative to control; values are per cent of control
[9] = system: Tyrosine-protein kinase ABL1 (Homo sapiens), P00519 [F317I]; assay: Inhibition of ABL1 F317I mutant (unknown origin) at 10 uM by Ambit Kinomescan binding assay relative to control
[10] = biological target: Serine/threonine-protein kinase 33 (Homo sapiens) (UniProt Q9BYT3); assay: Inhibition of STK33 (unknown origin) at 10 uM by Ambit Kinomescan binding assay
[11] = biological target: Calcium/calmodulin-dependent protein kinase kinase 2 (Homo sapiens) (UniProt Q96RR4); assay: Inhibition of CaMKK2 Lys1 labeling site in human A-375 cells at 0.5 uM by KiNativ Profiling analysis relative to control; format: cell-based
[12] = biological target: Cyclin-dependent kinase 2 (Homo sapiens) (UniProt P24941); assay: Inhibition of CDK2 K2 labeling site in human Huh-7 cells at 10 uM by KiNativ Profiling analysis relative to control; format: cell-based
[13] = Inhibition of […] K2 labeling site in human Huh-7 cells at 10 uM by KiNativ Profiling analysis relative to control; details: condition cancer
[14] = biological target: eIF-2-alpha kinase GCN2 (Homo sapiens) (UniProt Q9P2K8); assay: Inhibition of GCN2 K2 labeling site in human Huh-7 cells at 1 uM by KiNativ Profiling analysis relative to control; format: cell-based
[15] = Inhibition of […] ATP labeling site in human Huh-7 cells at 1 uM by KiNativ Profiling analysis relative to control; details: condition cancer

Chain of Mitogen-activated protein kinase 8 (P45983 whole entry): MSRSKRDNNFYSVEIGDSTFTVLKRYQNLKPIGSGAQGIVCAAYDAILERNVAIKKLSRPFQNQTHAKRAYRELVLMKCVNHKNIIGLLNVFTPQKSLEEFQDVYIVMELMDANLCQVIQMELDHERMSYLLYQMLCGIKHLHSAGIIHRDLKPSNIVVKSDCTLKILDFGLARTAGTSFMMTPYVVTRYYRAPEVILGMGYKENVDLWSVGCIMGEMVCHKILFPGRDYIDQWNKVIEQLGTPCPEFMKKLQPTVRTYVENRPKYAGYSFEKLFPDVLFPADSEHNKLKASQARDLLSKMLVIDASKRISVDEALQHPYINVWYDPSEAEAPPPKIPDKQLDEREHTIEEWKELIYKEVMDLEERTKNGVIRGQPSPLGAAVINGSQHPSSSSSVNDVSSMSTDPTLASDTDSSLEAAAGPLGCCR
Chain of Calcium/calmodulin-dependent protein kinase kinase 2 (Homo sapiens) (Q96RR4 2-588 limits assumed): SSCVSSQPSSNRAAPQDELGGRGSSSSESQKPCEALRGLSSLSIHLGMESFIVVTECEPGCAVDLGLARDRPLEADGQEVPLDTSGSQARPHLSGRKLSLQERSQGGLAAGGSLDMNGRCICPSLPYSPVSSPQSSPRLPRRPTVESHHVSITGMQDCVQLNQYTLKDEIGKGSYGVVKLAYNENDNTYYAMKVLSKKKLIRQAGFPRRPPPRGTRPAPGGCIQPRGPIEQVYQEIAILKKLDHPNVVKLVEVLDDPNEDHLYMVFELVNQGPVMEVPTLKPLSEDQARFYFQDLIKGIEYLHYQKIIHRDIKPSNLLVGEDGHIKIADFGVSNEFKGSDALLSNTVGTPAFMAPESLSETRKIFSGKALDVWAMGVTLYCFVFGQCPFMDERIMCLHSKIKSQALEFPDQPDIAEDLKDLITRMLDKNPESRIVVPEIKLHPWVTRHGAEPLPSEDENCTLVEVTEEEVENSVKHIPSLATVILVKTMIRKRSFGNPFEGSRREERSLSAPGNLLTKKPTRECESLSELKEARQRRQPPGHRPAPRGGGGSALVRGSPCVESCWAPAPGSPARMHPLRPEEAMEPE
Chain of Tyrosine-protein kinase ABL1 (Homo sapiens), P00519 [F317I] (P00519 whole entry F317I): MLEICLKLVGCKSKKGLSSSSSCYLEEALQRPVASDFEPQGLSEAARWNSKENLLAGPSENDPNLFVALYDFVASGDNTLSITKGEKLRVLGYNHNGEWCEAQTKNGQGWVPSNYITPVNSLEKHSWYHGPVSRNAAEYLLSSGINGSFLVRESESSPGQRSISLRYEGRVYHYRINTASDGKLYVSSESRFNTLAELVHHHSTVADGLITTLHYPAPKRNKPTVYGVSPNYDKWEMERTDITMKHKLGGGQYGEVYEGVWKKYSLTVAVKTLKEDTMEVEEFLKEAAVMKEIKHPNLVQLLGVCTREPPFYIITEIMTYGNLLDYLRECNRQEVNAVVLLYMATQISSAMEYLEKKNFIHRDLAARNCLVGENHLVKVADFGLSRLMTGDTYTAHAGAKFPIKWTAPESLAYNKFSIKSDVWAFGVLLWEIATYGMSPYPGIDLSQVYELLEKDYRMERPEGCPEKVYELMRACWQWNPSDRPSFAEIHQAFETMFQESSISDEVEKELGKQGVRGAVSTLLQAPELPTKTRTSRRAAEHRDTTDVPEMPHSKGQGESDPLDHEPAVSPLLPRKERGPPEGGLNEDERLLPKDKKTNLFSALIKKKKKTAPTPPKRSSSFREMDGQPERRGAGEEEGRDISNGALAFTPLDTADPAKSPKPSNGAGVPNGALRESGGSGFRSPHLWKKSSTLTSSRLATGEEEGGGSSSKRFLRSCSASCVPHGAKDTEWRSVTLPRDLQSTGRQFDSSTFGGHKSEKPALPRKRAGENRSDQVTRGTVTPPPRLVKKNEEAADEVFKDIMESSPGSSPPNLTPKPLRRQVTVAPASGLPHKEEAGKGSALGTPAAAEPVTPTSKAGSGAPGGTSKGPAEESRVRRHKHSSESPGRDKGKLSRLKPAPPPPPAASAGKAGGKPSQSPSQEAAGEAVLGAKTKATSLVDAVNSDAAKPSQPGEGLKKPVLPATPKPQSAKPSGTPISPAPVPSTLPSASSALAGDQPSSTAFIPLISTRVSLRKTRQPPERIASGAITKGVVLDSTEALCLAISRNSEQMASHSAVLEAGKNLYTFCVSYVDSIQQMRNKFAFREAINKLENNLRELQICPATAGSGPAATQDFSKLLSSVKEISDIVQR
Chain of eIF-2-alpha kinase GCN2 (Homo sapiens) (Q9P2K8 whole entry): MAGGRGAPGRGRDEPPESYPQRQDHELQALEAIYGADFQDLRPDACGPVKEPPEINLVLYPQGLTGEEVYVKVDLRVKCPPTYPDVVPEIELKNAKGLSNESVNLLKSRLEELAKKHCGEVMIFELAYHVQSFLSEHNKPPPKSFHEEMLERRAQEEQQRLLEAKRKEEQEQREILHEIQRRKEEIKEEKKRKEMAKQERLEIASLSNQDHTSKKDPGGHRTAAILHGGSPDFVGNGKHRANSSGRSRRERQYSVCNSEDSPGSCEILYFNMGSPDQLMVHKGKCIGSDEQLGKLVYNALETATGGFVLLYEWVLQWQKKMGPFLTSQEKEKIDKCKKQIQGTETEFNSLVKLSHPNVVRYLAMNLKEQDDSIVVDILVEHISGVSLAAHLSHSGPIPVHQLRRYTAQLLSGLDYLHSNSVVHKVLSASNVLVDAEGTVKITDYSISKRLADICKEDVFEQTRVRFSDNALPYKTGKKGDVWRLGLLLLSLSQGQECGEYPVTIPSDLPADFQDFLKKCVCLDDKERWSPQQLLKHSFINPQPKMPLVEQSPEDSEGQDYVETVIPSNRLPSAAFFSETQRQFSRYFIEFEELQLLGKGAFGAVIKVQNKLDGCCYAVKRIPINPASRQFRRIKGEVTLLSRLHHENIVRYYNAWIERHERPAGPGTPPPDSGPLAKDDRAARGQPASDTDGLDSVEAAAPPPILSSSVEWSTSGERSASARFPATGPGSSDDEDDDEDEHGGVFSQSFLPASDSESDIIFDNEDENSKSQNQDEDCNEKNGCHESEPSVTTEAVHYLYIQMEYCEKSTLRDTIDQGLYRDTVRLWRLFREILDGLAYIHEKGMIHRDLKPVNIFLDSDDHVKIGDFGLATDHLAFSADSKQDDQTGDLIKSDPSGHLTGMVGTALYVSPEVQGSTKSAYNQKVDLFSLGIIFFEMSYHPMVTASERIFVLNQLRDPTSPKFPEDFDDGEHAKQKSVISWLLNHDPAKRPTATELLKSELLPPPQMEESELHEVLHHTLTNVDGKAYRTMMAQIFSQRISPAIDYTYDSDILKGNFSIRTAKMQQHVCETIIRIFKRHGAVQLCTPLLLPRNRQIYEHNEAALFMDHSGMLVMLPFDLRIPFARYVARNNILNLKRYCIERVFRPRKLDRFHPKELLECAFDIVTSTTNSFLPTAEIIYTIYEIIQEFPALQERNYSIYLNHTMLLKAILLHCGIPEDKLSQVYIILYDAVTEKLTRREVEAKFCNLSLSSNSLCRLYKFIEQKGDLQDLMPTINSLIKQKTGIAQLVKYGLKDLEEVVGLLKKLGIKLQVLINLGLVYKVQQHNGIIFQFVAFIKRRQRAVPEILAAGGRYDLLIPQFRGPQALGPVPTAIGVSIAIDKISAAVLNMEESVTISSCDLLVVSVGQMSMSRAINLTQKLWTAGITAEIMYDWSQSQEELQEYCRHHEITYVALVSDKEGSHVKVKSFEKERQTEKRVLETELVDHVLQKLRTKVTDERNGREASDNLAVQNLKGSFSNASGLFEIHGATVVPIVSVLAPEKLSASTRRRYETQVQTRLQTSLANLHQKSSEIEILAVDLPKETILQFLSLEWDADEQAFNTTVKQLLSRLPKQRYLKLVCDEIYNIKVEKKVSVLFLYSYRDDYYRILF
Chain of Serine/threonine-protein kinase 38-like (Homo sapiens) (Q9Y2H1 2-464 limits assumed): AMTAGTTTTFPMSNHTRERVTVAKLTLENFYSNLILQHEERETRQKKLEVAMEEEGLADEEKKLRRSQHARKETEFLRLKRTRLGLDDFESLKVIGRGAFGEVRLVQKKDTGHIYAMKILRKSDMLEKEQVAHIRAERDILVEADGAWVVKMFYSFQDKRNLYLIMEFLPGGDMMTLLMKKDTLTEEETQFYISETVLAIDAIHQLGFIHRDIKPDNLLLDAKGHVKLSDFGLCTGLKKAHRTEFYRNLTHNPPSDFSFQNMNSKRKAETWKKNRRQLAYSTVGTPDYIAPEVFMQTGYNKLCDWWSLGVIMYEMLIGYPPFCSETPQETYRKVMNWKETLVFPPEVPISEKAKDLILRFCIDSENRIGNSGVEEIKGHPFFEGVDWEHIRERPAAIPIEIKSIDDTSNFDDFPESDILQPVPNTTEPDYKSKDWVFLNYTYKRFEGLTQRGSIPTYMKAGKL
Chain of Serine/threonine-protein kinase 33 (Homo sapiens) (Q9BYT3 whole entry, looked up): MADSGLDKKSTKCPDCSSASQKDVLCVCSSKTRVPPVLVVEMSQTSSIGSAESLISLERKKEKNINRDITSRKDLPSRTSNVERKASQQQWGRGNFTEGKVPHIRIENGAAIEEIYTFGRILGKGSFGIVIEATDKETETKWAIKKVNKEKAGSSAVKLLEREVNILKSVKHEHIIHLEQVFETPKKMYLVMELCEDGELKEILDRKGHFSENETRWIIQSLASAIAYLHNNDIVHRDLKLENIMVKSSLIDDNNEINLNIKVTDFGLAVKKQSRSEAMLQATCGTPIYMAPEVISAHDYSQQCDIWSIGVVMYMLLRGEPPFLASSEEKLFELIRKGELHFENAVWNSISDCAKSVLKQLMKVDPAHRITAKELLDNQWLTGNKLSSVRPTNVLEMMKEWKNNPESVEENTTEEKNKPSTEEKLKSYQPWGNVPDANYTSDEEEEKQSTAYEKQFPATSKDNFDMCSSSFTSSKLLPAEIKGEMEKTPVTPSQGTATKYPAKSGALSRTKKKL

CNc1cc(Oc2cc(C(=O)Nc3cc(N4CCN(C)CC4)cc(C(F)(F)F)c3)ccc2C)ncn1
inhibition [1]: -1.5%
inhibition [2]: 14.5%
inhibition [3]: 15%

CCN1CCN(Cc2ccc(NC(=O)c3ccc(C)c(/C=C/c4cnc5[nH]ccc5c4OC)c3)cc2C(F)(F)F)CC1
inhibition [4]: 70%
inhibition [5]: 9.9%
inhibition [6]: 10.4%
inhibition [7]: 14.8%
residual activity [8]: 7.1%

CCN1CCN(Cc2ccc(NC(=O)c3ccc(C)c(Oc4ccnc5[nH]ccc45)c3)cc2C(F)(F)F)CC1
inhibition [9]: 0.05%
inhibition [10]: inactive
inhibition [11]: 6.3%
inhibition [12]: 16.2%
inhibition at 10 µM [13]: -6.7%
inhibition [14]: 12%
inhibition at 1 µM [15]: -3.2%
